From patent US4591590A, “Benzhydrylpiperazine derivatives, processes for the preparation thereof and pharmaceutical composition comprising the same” (Fujisawa Pharmaceutical Co., Ltd., priority 1982, dated 1986)
Where a name gives a salt, the structure may show the parent alone.

Tested on: anaphylactic asthma in guinea-pigs
Experiment: Antagonism to anaphylactic asthma in guinea-pigs (passively sensitized with rabbit anti-egg albumin antiserum, egg albumin aerosol challenge; survival)
Format: in vivo, guinea-pig (male Hartley strain)
Conditions: 10 mg/kg, oral, 30 minutes before egg albumin aerosol challenge; dose group 3 or 5 animals (* = 3 guinea-pigs: Examples 10-(5) and 11)
Description: Equal volumes of a saline solution of egg albumin (200 mg/ml) and of Freund's Complete Adjuvant were mixed and emulsified. Each male New Zealand white strain rabbits, each weighing 2 to 2.5 kg., received an intramuscular injection of 0.5 ml of the emulsion in the left and right thigh regions. One week later, they received an intradermal injection of 0.25 ml of a saline solution of egg albumin (concentration: 20 mg/ml) in the different four sites of the dorsal skin surface three times every other week. Blood samples were collected from the carotid artery one week after the last injection.
The level of anaphylactic anti-egg albumin antibodies in pools of sera were determined by passive cutaneous anaphylaxis (PCA) reactions using shaven Hartley strain test guinea-pigs.
Antiserum was serially diluted (two fold) in saline and 0.1 ml of each antiserum dilution were injected intradermally into the dorsal skin surface of the test guinea-pigs. 24 hours after intradermal sensitization,Egg albumin-specific PCA reactions were elicited by intravenous injection of 10 mg of egg albumin in 1 ml of 1% Evans blue dye dissolved in saline. Reactions were read and recorded as the highest dilution of serum evoking threshold PCA reactivity (5 mm diameter).
Male Hartley strain guinea-pigs, weighing 305 to 400 g, were used. Animals were sensitized by an intravenous injection of rabbit antiserum against egg albumin (4000 PCA titer) with 0.5 ml/animal. After 24 hours, animals were placed individually in a plastic chamber of 5.3 liter volume. An aerosol of 5% egg albumin solution was sprayed in the chamber at a rate of 0.16 ml/min with a commercial nebulizer. The test compounds were given to the animals orally 30 minutes before the challenge with the egg albumin solution. Each dose group consisted of 3 or 5 animals. The inhibitory effect of the test compounds was determined from the number of surviving animals more than 2 hours after spray of the antigen.

Compound	Inhibitory effect of anaphylactic asthma in guinea-pig (from number of surviving animals more than 2 hours after spray of the antigen) [%]
CC(=O)CCCN1CCN(C(c2ccccc2)c2ccccc2)CC1.O=C(O)/C=C/C(=O)O [Example 1, 1-(4-oxo-1-pentyl)-4-benzhydrylpiperazine fumarate]	100
Cl.Cl.O=C(NCCCN1CCN(C(c2ccccc2)c2ccccc2)CC1)c1ccccc1 [Example 7, 1-(3-benzoylaminopropyl)-4-benzhydrylpiperazine dihydrochloride]	100
COc1ccccc1C(=O)NCCCN1CCN(C(c2ccccc2)c2ccccc2)CC1.Cl.Cl [Example 10-(2), 1-[3-(2-Methoxybenzoylamino)propyl]-4-benzhydrylpiperazine dihydrochloride]	80
CS(=O)(=O)Nc1ccccc1C(=O)NCCCN1CCN(C(c2ccccc2)c2ccccc2)CC1 [Example 10-(5), 1-[3-(2-Methanesulfonylaminobenzoylamino)propyl]-4-benzhydrylpiperazinedihydrochloride]	100
O=C(Cn1c(=O)sc2ccccc21)NCCCN1CCN(C(c2ccccc2)c2ccccc2)CC1 [Example 10-(8), 1-[3-[2-(2-Oxo-benzothiazolin-3-yl)acetylamino]propyl]-4-benzhydrylpiperazine]	80
CC(=O)NCCCN1CCN(C(c2ccccc2)c2ccccc2)CC1 [Example 11, 1-(3-acetylaminopropyl)-4-benzhydrylpiperazine]	100
CS(=O)(=O)Nc1cccc(CN2CCN(C(c3ccccc3)c3ccccc3)CC2)n1.Cl.Cl [Example 13, 1-(6-methanesulfonylaminopyridin-2-ylmethyl)-4-benzhydrylpiperazine dihydrochloride]	100
